Assay results as given in patent EP1824486B1, “BENZDIOXANE PIPERAZINE DERIVATIVES WITH A COMBINATION OF AFFINITY FOR DOPAMINE-D2 RECEPTORS AND SEROTONIN REUPTAKE SITES” (Solvay Pharmaceuticals B.V., priority 2004, dated 2006).

Assays:
serotonin reuptake sites = target: T1, serotonin reuptake sites (Rattus norvegicus, UniProt P31652); test: In vitro affinity for serotonin reuptake sites ([3H]-paroxetine binding assay, Habert et al.); details: average values from three independent experiments; read-out: in vitro affinity 5-HT reuptake binding Ki
T1 construct: from tissue; host or cells: rat cortical membranes (from the title of the cited method only)
T1 sequence (P31652 whole entry): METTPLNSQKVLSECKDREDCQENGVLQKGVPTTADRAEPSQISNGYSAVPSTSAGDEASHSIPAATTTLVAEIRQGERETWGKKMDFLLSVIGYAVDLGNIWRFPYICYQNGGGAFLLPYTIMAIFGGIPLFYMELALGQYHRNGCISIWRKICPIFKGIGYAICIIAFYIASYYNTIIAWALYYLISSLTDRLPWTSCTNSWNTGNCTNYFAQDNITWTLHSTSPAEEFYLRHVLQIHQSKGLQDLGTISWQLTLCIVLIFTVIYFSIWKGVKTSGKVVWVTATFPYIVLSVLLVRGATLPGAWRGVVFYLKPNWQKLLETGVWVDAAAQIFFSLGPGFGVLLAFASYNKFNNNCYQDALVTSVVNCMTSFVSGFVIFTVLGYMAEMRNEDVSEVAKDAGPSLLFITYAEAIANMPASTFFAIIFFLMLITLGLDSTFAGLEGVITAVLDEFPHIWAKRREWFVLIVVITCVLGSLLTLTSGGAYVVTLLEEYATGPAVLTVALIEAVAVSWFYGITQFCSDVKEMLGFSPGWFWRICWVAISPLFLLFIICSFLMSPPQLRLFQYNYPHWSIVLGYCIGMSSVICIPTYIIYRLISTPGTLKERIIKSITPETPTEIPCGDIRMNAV
Excerpt: In vitro affinity for serotonin reuptake sites

serotonin reuptake = target: T2, serotonin reuptake (Mus musculus, UniProt Q60857); test: Potentiation of 5-HTP induced behaviour in mice; details: po, read-out: in vivo activity 5-HT reuptake 5-HTP** ED50 mg/kg po
T2 construct: they potentiate 5-HTP induced behaviour in mice; from tissue; host or cells: living mice (in vivo behavioural model)
T2 sequence (Q60857 whole entry): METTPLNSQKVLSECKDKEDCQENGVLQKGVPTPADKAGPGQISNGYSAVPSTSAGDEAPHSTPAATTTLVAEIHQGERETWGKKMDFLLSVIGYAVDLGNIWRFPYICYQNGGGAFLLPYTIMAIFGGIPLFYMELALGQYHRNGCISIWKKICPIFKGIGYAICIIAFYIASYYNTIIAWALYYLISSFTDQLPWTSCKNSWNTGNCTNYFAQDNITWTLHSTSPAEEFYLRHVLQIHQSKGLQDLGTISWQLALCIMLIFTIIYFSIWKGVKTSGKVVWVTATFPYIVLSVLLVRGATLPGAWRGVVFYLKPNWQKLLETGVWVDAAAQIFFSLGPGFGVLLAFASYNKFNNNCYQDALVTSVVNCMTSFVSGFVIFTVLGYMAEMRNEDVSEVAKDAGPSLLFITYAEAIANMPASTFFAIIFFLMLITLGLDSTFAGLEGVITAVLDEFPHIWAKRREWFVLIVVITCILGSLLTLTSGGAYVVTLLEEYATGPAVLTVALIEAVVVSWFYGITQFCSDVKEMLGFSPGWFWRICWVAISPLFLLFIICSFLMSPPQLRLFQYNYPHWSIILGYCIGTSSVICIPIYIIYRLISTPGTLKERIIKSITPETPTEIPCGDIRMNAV

dopamine D2 receptors = target: T3, dopamine D2 receptors (Mus musculus, UniProt P61168); test: Antagonism of apomorphine-induced climbing behaviour in mice (APO-climb); details: po, read-out: in vivo activity Dopamine-D2 APO-climb* ED50 mg/kg po
T3 construct: antagonize apomorphine-induced climbing behaviour in mice; from tissue; host or cells: living mice (in vivo behavioural model)
T3 sequence (P61168 whole entry): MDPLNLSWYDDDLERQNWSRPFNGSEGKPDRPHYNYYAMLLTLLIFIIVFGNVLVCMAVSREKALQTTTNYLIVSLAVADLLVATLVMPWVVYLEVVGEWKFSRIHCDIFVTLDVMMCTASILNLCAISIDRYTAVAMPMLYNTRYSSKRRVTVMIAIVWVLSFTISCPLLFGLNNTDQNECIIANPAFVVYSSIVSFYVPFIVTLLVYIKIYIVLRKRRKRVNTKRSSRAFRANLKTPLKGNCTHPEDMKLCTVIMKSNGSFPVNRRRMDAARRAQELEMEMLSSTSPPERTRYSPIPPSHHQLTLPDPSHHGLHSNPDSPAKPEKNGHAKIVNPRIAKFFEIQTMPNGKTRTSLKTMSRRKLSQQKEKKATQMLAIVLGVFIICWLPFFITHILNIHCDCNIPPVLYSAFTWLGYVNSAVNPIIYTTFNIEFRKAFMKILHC

| Ki (serotonin reuptake sites) [nM] | ED50 (serotonin reuptake) [mg/kg] | ED50 (dopamine D2 receptors) [mg/kg] | Compound |
| --- | --- | --- | --- |
| 7.9 ± 2.8 | – | – | Clc1cccc2c(CCCN3CCN(c4cccc5c4OCCO5)CC3)c[nH]c12 [5l, 3-{3-[4-(2,3-Dihydro-benzo[1,4]dioxin-5-yl)-piperazin-1-yl]-propyl}-7-chloro-1H-indole] |
| 1.6 ± 0.2 | – | 9 | Fc1ccc2c(CCCN3CCN(c4cccc5c4OCCO5)CC3)c[nH]c2c1 [compound 5f, 3-{3-[4-(2,3-Dihydro-benzo[1,4]dioxin-5-yl)-piperazin-1-yl]-propyl}-6-fluoro-1H-indole] |
| 0.4 ± 0.1 | 32 | 13 | Fc1cccc2[nH]cc(CCCN3CCN(c4cccc5c4OCCO5)CC3)c12 [compound 5d, 3-{3-[4-(2,3-Dihydro-benzo[1,4]dioxin-5-yl)-piperazin-1-yl]-propyl}-4-fluoro-1H-indole] |
| 2 ± 0.7 | 86 | 4.5 | Clc1ccc2c(CCCN3CCN(c4cccc5c4OCCO5)CC3)c[nH]c2c1 [compound 5k, 3-{3-[4-(2,3-Dihydro-benzo[1,4]dioxin-5-yl)-piperazin-1-yl]-propyl}-6-chloro-1H-indole] |
| 0.4 ± 0.1 | 22 | 10 | c1cc2c(c(N3CCN(CCCc4c[nH]c5ccccc45)CC3)c1)OCCO2 [compound 5b, 3-{3-[4-(2,3-Dihydro-benzo[1,4]dioxin-5-yl)-piperazin-1-yl]-propyl}-1H-indole] |
| 12 ± 5 | – | – | Cc1cccc2c(CCCN3CCN(c4cccc5c4OCCO5)CC3)c[nH]c12 [compound 5n, 3-{3-[4-(2,3-Dihydro-benzo[1,4]dioxin-5-yl)-piperazin-1-yl]-propyl}-7-methyl-1H-indole] |

Continued, compound first:

| Compound | Ki (serotonin reuptake sites) [nM] | ED50 (serotonin reuptake) [mg/kg] | ED50 (dopamine D2 receptors) [mg/kg] |
| --- | --- | --- | --- |
| COc1ccc2[nH]cc(CCCN3CCN(c4cccc5c4OCCO5)CC3)c2c1 [compound 5h, 3-{3-[4-(2,3-Dihydro-benzo[1,4]dioxin-5-yl)-piperazin-1-yl]-propyl}-5-methoxy-1H-indole] | 14 ± 4 | – | – |
| Fc1cccc2c(CCCN3CCN(c4cccc5c4OCCO5)CC3)c[nH]c12 [compound 5g, 3-{3-[4-(2,3-Dihydro-benzo[1,4]dioxin-5-yl)-piperazin-1yl]-propyl}-7-fluoro-1H-indole] | 0.6 ± 0.1 | 28.4 | – |
| c1cc2c(c(N3CCN(Cc4c[nH]c5ccccc45)CC3)c1)OCCO2 [compound 5a, 3-[4-(2,3-Dihydro-benzo[1,4]dioxin-5-yl)-piperazin-1-yl-methyl]-1H-indole] | 176 ± 59 | – | – |
| c1cc2c(c(N3CCN(CCCc4c[nH]c5ccccc45)CC3)c1)CCCO2 [compound 14, 3-[3-(4-chroman-5-yl-piperazine-1-yl)-propyl]-1H-indole] | 1.1 ± 0.3 | – | – |
| Fc1ccc2[nH]cc(CCCN3CCN(c4cccc5c4OCCO5)CC3)c2c1 [compound 5e, 3-{3-[4-(2,3-Dihydro-benzo[1,4]dioxin-5-yl)-piperazin-1-yl]-propyl}-5-fluoro-1H-indole] | 0.3 ± 0.1 | 2 | – |
| Clc1cccc2[nH]cc(CCCN3CCN(c4cccc5c4OCCO5)CC3)c12 [compound 5i, 3-{3-[4-(2,3-Dihydro-benzo[1,4]dioxin-5-yl)-piperazin-1-yl]-propyl}-4-chloro-1H-indole] | 1.4 ± 0.4 | – | – |
| c1cc2c(c(N3CCN(CCCCCc4c[nH]c5ccccc45)CC3)c1)OCCO2 [compound 5c, 3-{5-[4-(2,3-Dihydro-benzo[1,4]dioxin-5-yl)-piperazin-1-yl]-pentyl}-1H-indole] | 37 ± 3 | – | – |
